From US20240294531A1, “COVALENT HETEROCYCLES AND USES THEREOF” (Kumquat Biosciences Inc., priority 2022, published 2024) come the findings set out here.

Bounds are passed on as bounds.

Experiment [1] deals with BTK wildtype protein (Homo sapiens (Human), UniProt Q06187). As to the kind of experiment: BTK wildtype HTRF displacement assay. The format is binding. Conditions: 1-hour incubation; read-out: BTK (wt) IC50. An outline of the steps:
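Tracer-displacement HTRF format: compound and tracer 239 compete at the BTK active site, detected via anti-GST-Tb on GST-tagged full-length enzyme. One-hour room-temperature incubation; compounds dosed at six four-fold steps down from 5 μM. Percent inhibition versus DMSO gives IC50 by constrained four-parameter logistic fit.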

Experiment [2] concerns the target BTK C481S protein (Homo sapiens (Human), UniProt Q06187, C481S). As to the kind of experiment: BTK C481S HTRF displacement assay. Format: binding. Conditions: 1-hour incubation. An outline of the steps:
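Tracer displacement read by HTRF after 1 hour at room temperature: GST-BTK C481S 2-659, 50 nM tracer 239 (Kd 54 nM), anti-GST antibody, compound in six four-fold doses from 5 μM. Percent inhibition versus DMSO fitted (bottom 0, top 100) for IC50, converted to KI via Cheng-Prusoff.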
On the technique in general: In TR-FRET formats the signal depends on donor and acceptor labels being close together.

Sequence of BTK C481S protein (Q06187 2-659 C481S): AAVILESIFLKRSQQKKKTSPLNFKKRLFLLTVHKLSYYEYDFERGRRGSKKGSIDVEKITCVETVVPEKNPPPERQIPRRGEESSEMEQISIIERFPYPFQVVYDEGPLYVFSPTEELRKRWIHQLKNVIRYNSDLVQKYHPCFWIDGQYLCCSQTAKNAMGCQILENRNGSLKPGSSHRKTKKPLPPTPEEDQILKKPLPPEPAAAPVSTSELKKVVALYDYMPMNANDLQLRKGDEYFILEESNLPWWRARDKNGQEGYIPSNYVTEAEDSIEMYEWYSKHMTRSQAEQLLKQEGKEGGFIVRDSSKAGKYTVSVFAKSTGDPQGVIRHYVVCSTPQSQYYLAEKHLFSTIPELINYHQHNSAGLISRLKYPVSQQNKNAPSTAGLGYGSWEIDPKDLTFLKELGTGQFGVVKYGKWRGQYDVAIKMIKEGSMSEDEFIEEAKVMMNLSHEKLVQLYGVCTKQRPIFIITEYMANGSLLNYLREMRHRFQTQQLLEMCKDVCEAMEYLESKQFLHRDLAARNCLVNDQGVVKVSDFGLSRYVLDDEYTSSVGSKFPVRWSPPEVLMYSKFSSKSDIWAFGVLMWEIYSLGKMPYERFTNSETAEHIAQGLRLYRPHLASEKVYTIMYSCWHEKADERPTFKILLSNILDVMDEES
Sequence of BTK wildtype protein (Q06187 2-659): as the sequence (Q06187 2-659 C481S) above, with S480C counted along it

Regarding `CN(C(=O)n1cncn1)C1CCC(C2CCNc3c(C(N)=O)c(-c4ccc(Oc5ccccc5)cc4)nn32)CC1` (centres unmarked) [Compound 196, 7-(4-(N-methyl-1H-1,2,4-triazole-1-carboxamido)cyclohexyl)-2-(4-phenoxyphenyl)-4,5,6,7-tetrahydropyrazolo[1,5-a] pyrimidine-3-carboxamide], the IC50 in experiment [1] and in experiment [2] was not above 1000 nM in each case.

As for `NC(=O)c1c(-c2ccc(Oc3ccccc3)cc2)nn(C2CCCC3C2CCN3C(=O)n2cncn2)c1N` (centres unmarked) [Compound 197, 1-(1-(1H-1,2,4-triazole-1-carbonyl)octahydro-1H-indol-4-yl)-5-amino-3-(4-phenoxy-phenyl)-1H-pyrazole-4-carboxamide], the 50% inhibitory concentration (IC50) in experiment [1] and in experiment [2] was not above 1000 nM throughout.

Take `COc1ccc(F)cc1C(=O)NCc1ccc(-c2nn(C3CCCCC3CN(C)C(=O)n3cncn3)c3ncnc(N)c23)cc1` (centres unmarked) [Compound 198, N-((2-(4-amino-3-(4-((5-fluoro-2-methoxybenzamido)methyl)phenyl)-1H-pyrazolo[3,4-d]pyrimidin-1-yl)cyclohexyl)methyl)-N-methyl-1H-1,2,4-triazole-1-carboxamide]: the IC50 in experiment [1] and in experiment [2] was not above 1000 nM each time.

`CN(C(=O)n1cncn1)C1CCC2C(CNc3c(C(N)=O)c(-c4ccc(Oc5ccccc5)cc4)nn32)C1` (centres unmarked) [Compound 199, 7-(N-methyl-1H-1,2,4-triazole-1-carboxamido)-2-(4-phenoxyphenyl)-4,5,5a,6,7,8,9,9a-octahydro-pyrazolo[1,5-a]quinazoline-3-carboxamide]: the IC50 in experiment [1] and in experiment [2] was not above 1000 nM each time.

On to `COc1ccc(F)cc1C(=O)NCc1ccc(-c2nn(C(CC3CCCCC3)CN(C)C(=O)n3cncn3)c3ncnc(N)c23)cc1` (centres unmarked) [Compound 202, N-(2-(4-amino-3-(4-((5-fluoro-2-methoxybenzamido)methyl)phenyl)-1H-pyrazolo[3,4-d]pyrimidin-1-yl)-3-cyclohexylpropyl)-N-methyl-1H-1,2,4-triazole-1-carboxamide], for which the IC50 in experiment [1] and in experiment [2] was more than 1000 nM throughout.

On to `NC(=O)c1nn2c(c1-c1ccc(Oc3ccccc3)cc1)NCCC2C1CCCCN1C(=O)n1cncn1` (centres unmarked) [Compound 203, 7-(1-(1H-1,2,4-triazole-1-carbonyl)piperidin-2-yl)-3-(4-phenoxy-phenyl)-4,5,6,7-tetrahydro-pyrazolo[1,5-a]pyrimidine-2-carboxamide], for which the IC50 in experiment [1] and in experiment [2] was more than 1000 nM in each case.

On to `CC[C@@H](Cn1nc(-c2ccc(CNC(=O)c3cc(F)ccc3OC)cc2)c2c(N)ncnc21)N(C)C(=O)n1cncn1` [Compound 204, (S)-N-(1-(4-amino-3-(4-((5-fluoro-2-methoxybenzamido)methyl)phenyl)-1H-pyrazolo[3,4-d]pyrimidin-1-yl)butan-2-yl)-N-methyl-1H-1,2,4-triazole-1-carboxamide], for which the IC50 in experiment [1] and in experiment [2] was not above 1000 nM throughout.

`CC(C1CCNc2c(C(N)=O)c(-c3ccc(Oc4ccccc4)cc3)nn21)N(C)C(=O)n1cncn1` (centres unmarked) [Compound 205, 7-(1-(N-methyl-1H-1,2,4-triazole-1-carboxamido)ethyl)-2-(4-phenoxy-phenyl)-4,5,6,7-tetrahydro-pyrazolo[1,5-a]pyrimidine-3-carboxamide]: the IC50 in experiment [1] and in experiment [2] was not above 1000 nM each time.

For `COc1ccc(F)cc1C(=O)NCc1ccc(-c2nn(C(CC3CCCC3)CN(C)C(=O)n3cncn3)c3ncnc(N)c23)cc1` (centres unmarked) [Compound 206, N-(2-(4-amino-3-(4-((5-fluoro-2-methoxybenzamido)methyl)phenyl)-1H-pyrazolo[3,4-d]pyrimidin-1-yl)-3-cyclopentylpropyl)-N-methyl-1H-1,2,4-triazole-1-carboxamide], the IC50 in experiment [1] and in experiment [2] was more than 1000 nM throughout.

Turning to `NC(=O)c1c(-c2ccc(Oc3ccccc3)cc2)nn2c1NCCC2C1CCCN(C(=O)n2cncn2)C1` (centres unmarked) [Compound 207, 7-(1-(1H-1,2,4-triazole-1-carbonyl)piperidin-3-yl)-2-(4-phenoxy-phenyl)-4,5,6,7-tetrahydro-pyrazolo[1,5-a]pyrimidine-3-carboxamide], the IC50 in experiment [1] and in experiment [2] was not above 1000 nM in each case.

For `COc1ccc(F)cc1C(=O)NCc1ccc(-c2nn(C[C@@H]3C[C@H](F)CN3C(=O)n3cncn3)c3ncnc(N)c23)cc1` [Compound 208, N-(4-(4-amino-1-(((2S,4S)-4-fluoro-1-(1H-1,2,4-triazole-1-carbonyl)pyrrolidin-2-yl)methyl)-1H-pyrazolo[3,4-d]pyrimidin-3-yl)benzyl)-5-fluoro-2-methoxybenzamide], the IC50 in experiment [1] and in experiment [2] was not above 1000 nM each time.

On to `COc1ccc(F)cc1C(=O)NCc1ccc(-c2nn(CC3CCC3N(C)C(=O)n3cncn3)c3ncnc(N)c23)cc1` (centres unmarked) [Compound 209, N-(2-((4-amino-3-(4-((5-fluoro-2-methoxybenzamido)methyl)phenyl)-1H-pyrazolo[3,4-d]pyrimidin-1-yl)methyl)cyclobutyl)-N-methyl-1H-1,2,4-triazole-1-carboxamide], for which the IC50 in experiment [1] and in experiment [2] was not above 1000 nM in each case.

`COc1ccc(F)cc1C(=O)NCc1ccc(-c2nn(CC3COCCN3C(=O)n3cncn3)c3ncnc(N)c23)cc1` (centres unmarked) [Compound 210, N-(4-(1-((4-(1H-1,2,4-triazole-1-carbonyl)morpholin-3-yl)methyl)-4-amino-1H-pyrazolo[3,4-d]pyrimidin-3-yl)benzyl)-5-fluoro-2-methoxybenzamide]: the IC50 in experiment [1] and in experiment [2] was more than 1000 nM throughout.

As for `COc1ccc(F)cc1C(=O)NCc1ccc(-c2nn(CC3CCCC3N(C)C(=O)n3cncn3)c3ncnc(N)c23)cc1` (centres unmarked) [Compound 211, N-(2-((4-amino-3-(4-((5-fluoro-2-methoxybenzamido)methyl)phenyl)-1H-pyrazolo[3,4-d]pyrimidin-1-yl)methyl)cyclopentyl)-N-methyl-1H-1,2,4-triazole-1-carboxamide], the concentration for half-maximal inhibition (IC50) in experiment [1] and in experiment [2] was not above 1000 nM in each case.

In the case of `COc1ccc(F)cc1C(=O)NCc1ccc(-c2nn(C[C@H]3C[C@@H](C)CCN3C(=O)n3cnnc3)c(N)c2C(N)=O)cc1` [Compound 212, 5-amino-3-(4-((5-fluoro-2-methoxybenzamido)methyl)phenyl)-1-(((2R,4S)-4-methyl-1-(4H-1,2,4-triazole-4-carbonyl)piperidin-2-yl)methyl)-1H-pyrazole-4-carboxamide], the IC50 in experiment [1] and in experiment [2] was not above 1000 nM throughout.

In the case of `COc1ccc(F)cc1C(=O)NCc1ccc(-c2nn(C3(CCN(C)C(=O)n4cncn4)CCC3)c3ncnc(N)c23)cc1` [Compound 213, N-(2-(1-(4-amino-3-(4-((5-fluoro-2-methoxybenzamido)methyl)phenyl)-1H-pyrazolo[3,4-d]pyrimidin-1-yl)cyclobutyl)ethyl)-N-methyl-1H-1,2,4-triazole-1-carboxamide], the IC50 in experiment [1] and in experiment [2] was not above 1000 nM in each case.

Turning to `COCCC(Cn1nc(-c2ccc(CNC(=O)c3cc(F)ccc3OC)cc2)c2c(N)ncnc21)N(C)C(=O)n1cncn1` (centres unmarked) [Compound 214, N-(1-(4-amino-3-(4-((5-fluoro-2-methoxybenzamido)methyl)phenyl)-1H-pyrazolo[3,4-d]pyrimidin-1-yl)-4-methoxy-butan-2-yl)-N-methyl-1H-1,2,4-triazole-1-carboxamide], the IC50 in experiment [1] and in experiment [2] was more than 1000 nM each time.

Take `COc1ccc(C)cc1C(=O)NCc1ccc(-c2nn(C3CCCC(N(C)C(=O)n4cncn4)C3)c3ncnc(N)c23)cc1` (centres unmarked) [Compound 215, N-(3-(4-amino-3-(4-((2-methoxy-5-methylbenzamido)methyl)phenyl)-1H-pyrazolo[3,4-d]pyrimidin-1-yl)cyclohexyl)-N-methyl-1H-1,2,4-triazole-1-carboxamide]: the IC50 in experiment [1] and in experiment [2] was not above 1000 nM throughout.

Regarding `COc1ccc(C)cc1C(=O)NCc1ccc(-c2nn(CC3CCCCN3C(=O)n3cncn3)c3ncnc(N)c23)cc1` (centres unmarked) [Compound 217, N-(4-(1-((1-(1H-1,2,4-triazole-1-carbonyl)piperidin-2-yl)methyl)-4-amino-1H-pyrazolo[3,4-d]pyrimidin-3-yl)benzyl)-2-methoxy-5-methylbenzamide], the IC50 in experiment [1] is not above 1000 nM; in experiment [2], more than 1000 nM.

Consider `COc1ccc(F)cc1C(=O)NCc1ccc(-c2nn(C(C)CN(C)C(=O)n3cncn3)c(N)c2C(N)=O)cc1` (centres unmarked) [Compound 218, N-(2-(5-amino-4-carbamoyl-3-(4-((5-fluoro-2-methoxybenzamido)methyl)phenyl)-1H-pyrazol-1-yl)propyl)-N-methyl-1H-1,2,4-triazole-1-carboxamide], for which the IC50 in experiment [1] and in experiment [2] was not above 1000 nM in each case.

Turning to `COc1ccc(C)cc1C(=O)NCc1ccc(-c2nn(C3CCCC(N(C)C(=O)n4cnnn4)C3)c3ncnc(N)c23)cc1` (centres unmarked) [Compound 219, N-(3-(4-amino-3-(4-((2-methoxy-5-methylbenzamido)methyl)phenyl)-1H-pyrazolo[3,4-d]pyrimidin-1-yl)cyclohexyl)-N-methyl-1H-tetrazole-1-carboxamide], the IC50 in experiment [1] and in experiment [2] was not above 1000 nM in each case.

Turning to `NC(=O)c1c(-c2ccc(Oc3ccccc3)cc2)nn2c1NCCC2C1CN(C(=O)n2cncn2)C1` (centres unmarked) [Compound 220, 7-(1-(1H-1,2,4-triazole-1-carbonyl)azetidin-3-yl)-2-(4-phenoxyphenyl)-4,5,6,7-tetrahydropyrazolo[1,5-a] pyrimidine-3-carboxamide], the IC50 in experiment [1] and in experiment [2] was not above 1000 nM in each case.

As a reminder, the IC50 is the concentration that inhibits the measured activity by half.
